Consider 15 compounds from ChEMBL document CHEMBL1141393 (J Med Chem, 2007).

Assay [1] deals with Plasmodium falciparum. The assay can be described thus: Antiplasmodial activity against chloroquine-sensitive Plasmodium falciparum 3D7. The assay is classed as functional, organism-based.
Assay [2] concerns Plasmodium falciparum. The assay can be described thus: Antiplasmodial activity against chloroquine-resistant Plasmodium falciparum K1. The assay is classed as functional, organism-based.
The test system of assay [3] is Plasmodium falciparum. Description: Antiplasmodial activity against chloroquine-sensitive Plasmodium falciparum D10. The assay is classed as functional, organism-based.
Assay [4] deals with Plasmodium falciparum. Description: Antiplasmodial activity against chloroquine-resistant Plasmodium falciparum W2. The class given is functional, organism-based.
Assay [5] relates to Candida parapsilosis. Description: Antifungal activity against Candida parapsilosis ATCC 22019. The assay is classed as functional. Particulars: Lodderomyces parapsilosis.
The test system of assay [6] is Candida albicans. Description: Antifungal activity against Candida albicans. The assay is classed as functional.
For assay [7], the system named is Pichia kudriavzevii. Description: Antifungal activity against Candida krusei ATCC 6258. The class given is functional.
Assay [8] has as its system Cryptococcus neoformans. The assay can be described thus: Antifungal activity against Cryptococcus neoformans. The assay is classed as functional.
For assay [9], the system named is Aspergillus flavus. The assay can be described thus: Antifungal activity against Aspergillus flavus ATCC 204304. The class given is functional.
The subject of assay [10] is Aspergillus fumigatus. Description: Antifungal activity against Aspergillus fumigatus. The assay is classed as functional.
Assay [11] deals with KB. Description: Cytotoxicity against human KB cell line. The assay is classed as cell-based.
Assay [12] concerns Daudi. The assay can be described thus: Cytotoxicity against human Daudi cell line. The class given is cell-based.
A short description of assay [13]: Cytotoxicity against human lymphocytes. The assay is classed as cell-based. Particulars: Lymphocyte.
Assay [14] concerns Aspergillus fumigatus. The assay can be described thus: Antifungal activity against itraconazole resistant Aspergillus fumigatus. The assay is classed as functional.

Values after ≈ are worked out from the molar mass of the structure shown. A value given as a limit tells only on which side of the number the result lay.

As usually defined, the IC50 is the concentration at which inhibition is half-maximal. Regarding `N#CC(c1ccccc1)(c1ccc(Cl)cc1)c1ccc(CN2CCCC2)cc1` (racemic), the IC50 came out at 5070 nM in [1] and 2640 nM in assay [2].
For the compound `OC(c1ccccc1)(c1ccc(Cl)cc1)c1ccc(CN2CCCC2)cc1` (racemic), the IC50 was 8300 nM in [3], > 10000 nM in [1] and 2170 nM in assay [2].
Take `Clc1ccc(C(c2ccccc2)(c2ccc(CN3CCCC3)cc2)N2CCCC2)cc1` (racemic): the IC50 came to 4810 nM in assay [3], 2570 nM in assay [4], 940 nM in [1] and 1990 nM in assay [2].
For `Clc1ccccc1C(CNCN1CCCC1)n1ccnc1` (racemic), the IC50 in assay [3] worked out at 9430 nM; in assay [4], 3050 nM; in [1], 2610 nM; in [2], 920 nM.
As a reminder, the MIC is the least concentration at which growth counts as inhibited. The low end stands for greater potency, the high end for weaker potency. Regarding `Clc1ccc(C(c2ccccc2)(c2ccc(CN3CCCC3)cc2)n2ccnc2)cc1` (racemic), the minimal inhibitory concentration (MIC) in assay [5] is 32 µg/mL (≈ 74.8 µM); in [6] it was 32 µg/mL (≈ 74.8 µM); in [7], 16 µg/mL (≈ 37.4 µM); in assay [8], > 32 µg/mL; in assay [9], > 32 µg/mL; in assay [10], > 32 µg/mL. Besides, the 50% inhibitory concentration (IC50) came to 70000 nM in assay [11], 58000 nM in assay [12] and 70000 nM in assay [13].
In the case of `Clc1ccc(C(Cn2ccnc2)(c2ccccc2)c2ccc(CN3CCCC3)cc2)cc1` (racemic), the values for the IC50 in [1] and in assay [2] were 750 nM and 520 nM, respectively.
On to `Clc1ccccc1C(c1ccc(CN2CCCC2)cc1)n1ccnc1` (racemic), for which the minimal inhibitory concentration (MIC) in assay [5], in [6], in assay [7], in assay [8], in assay [9] and in assay [10] was > 32 µg/mL in each case. Further, the IC50 in [3] was 2180 nM; in [4], 1700 nM; in assay [1], 11 nM; in assay [2], 110 nM.
With `CCN(CC)Cc1ccc(C(c2ccccc2Cl)n2cncn2)cc1` (racemic), the IC50 was > 10000 nM in [3], > 10000 nM in [4], > 10000 nM in assay [1] and 790 nM in assay [2].
Regarding `Clc1ccc(C(c2ccc(CN3CCCC3)cc2)n2ccnc2)cc1` (racemic), the MIC in [5], in assay [6], in [7], in assay [8], in assay [9] and in assay [10] was > 32 µg/mL each time. Also, the IC50 stood at 1660 nM in assay [3], 1130 nM in assay [4], 310 nM in assay [1] and 170 nM in assay [2].
With `COc1ccc(C(c2ccccc2)(c2ccc(CN3CCCC3)cc2)n2ccnc2)cc1` (racemic), the IC50 in [3] is 2040 nM; in assay [4], 1840 nM; in assay [1] it was 8130 nM; in assay [2], 5930 nM.
For `Clc1cccc(C(c2ccc(CN3CCCC3)cc2)n2ccnc2)c1` (racemic), the minimum inhibitory concentration (MIC) in [5], in [6], in assay [7], in assay [8], in assay [9] and in assay [10] was > 32 µg/mL throughout. Also, the IC50 in [3] was 1420 nM; in assay [4] it was 1030 nM; in [1] it was 110 nM; in [2], 200 nM.
In the case of `CCN(CC)CCCNCC(c1ccccc1Cl)n1ccnc1` (racemic), the IC50 in assay [3] amounted to 6410 nM; in [4] it was 4460 nM; in assay [1] it was 1900 nM; in assay [2] it was 3080 nM.
With `Clc1ccc(C(c2ccccc2)(c2ccc(CN3CCCC3)cc2)n2cncn2)cc1` (racemic), the IC50 is 6920 nM in assay [3], 3830 nM in assay [4], 8910 nM in assay [1] and 2150 nM in assay [2].
Take `Clc1cccc(C(c2ccccc2)(c2ccc(CN3CCCC3)cc2)n2ccnc2)c1` (racemic): the IC50 stood at 230 nM in assay [3], 100 nM in [4], 47 nM in assay [1] and 23 nM in assay [2].
As to `Clc1ccccc1C(c1ccccc1)(c1ccccc1)n1ccnc1` [CLOTRIMAZOLE], the MIC came to 2 µg/mL (≈ 5.8 µM) in assay [5]; 0.03 µg/mL (≈ 0.087 µM) in [6]; 2 µg/mL (≈ 5.8 µM) in assay [7]; 2 µg/mL (≈ 5.8 µM) in [8]; 4 µg/mL (≈ 11.6 µM) in [9]; 4 µg/mL (≈ 11.6 µM) in assay [10]. The same compound had an MIC in assay [14] of 4 µg/mL (≈ 11.6 µM).
